From ChEMBL document CHEMBL1201862, “PubChem BioAssay data set” (2004)
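Briefly, cells in 96-well plates were exposed to five compound concentrations for 48 h, and endpoints were estimated by linear interpolation. Here, GI50 denotes the concentration required for 50% inhibition of growth.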 Activity calls are given as the source filed them. Rule as the data show it: active = GI50 up to about 1.1 µM and inactive = higher.

Key:
Assay in all cases: inhibition of tumour cell growth, NCI panel, 48 h
[1] = tested on: CAKI-1
[2] = tested on: UACC-62
[3] = tested on: OVCAR-4
[4] = tested on: UACC-257
[5] = tested on: 786-0
[6] = tested on: SK-MEL-28
[7] = tested on: SF-539
[8] = tested on: A549
[9] = tested on: U-251
[10] = tested on: HL-60
[11] = tested on: NCI-H23
[12] = tested on: MDA-MB-435
[13] = tested on: SNB-19
[14] = tested on: TK-10
[15] = tested on: CCRF-CEM
[16] = tested on: NCI-H226
[17] = tested on: LOX IMVI
[18] = tested on: M14
[19] = tested on: NCI-H460
[20] = tested on: PC-3
[21] = tested on: HOP-92
[22] = tested on: SF-268
[23] = tested on: HCT-116
[24] = tested on: MCF7
[25] = tested on: SW-620
[26] = tested on: MOLT-4
[27] = tested on: RXF 393
[28] = tested on: MDA-MB-231
[29] = tested on: SNB-75
[30] = tested on: IGROV-1
[31] = tested on: Hs-578T
[32] = tested on: EKVX
[33] = tested on: KM12
[34] = tested on: OVCAR-5
[35] = tested on: NCI/ADR-RES
[36] = tested on: COLO 205
[37] = tested on: A498
[38] = tested on: HT-29
[39] = tested on: T47D
[40] = tested on: OVCAR-8
[41] = tested on: HOP-62
[42] = tested on: HCT-15
[43] = tested on: SF-295
[44] = tested on: SK-MEL-5
[45] = tested on: MDA-N
[46] = tested on: UO-31
[47] = tested on: ACHN
[48] = tested on: SK-MEL-2
[49] = tested on: DU-145
[50] = tested on: NCI-H522
[51] = tested on: Malme-3M
[52] = tested on: SN12C
[53] = tested on: SK-OV-3
[54] = tested on: SR
[55] = tested on: OVCAR-3
[56] = tested on: HCC 2998
[57] = tested on: RPMI-8226
[58] = tested on: K562

Measured: GI50

Cc1ccc(S(=O)(=O)N2C[C@](O)(c3ccccc3)[C@H]2C)cc1
> 100 µM: [42]
inactive: [1] > 100 µM | [2] > 100 µM | [3] > 100 µM | [4] > 100 µM | [5] > 100 µM | [6] > 100 µM | [7] > 100 µM | [8] > 100 µM | [9] > 100 µM | [10] 72.8 µM | [11] > 100 µM | [12] > 100 µM | [13] > 100 µM | [14] > 100 µM | [15] 26.4 µM | [16] > 100 µM | [17] > 100 µM | [18] > 100 µM | [19] > 100 µM | [20] > 100 µM | [21] > 100 µM | [22] > 100 µM | [23] > 100 µM | [24] > 100 µM | [25] > 100 µM | [26] 44.2 µM | [27] > 100 µM | [28] > 100 µM | [29] 89.3 µM | [30] > 100 µM | [31] > 100 µM | [32] > 100 µM | [33] > 100 µM | [34] > 100 µM | [35] > 100 µM | [36] > 100 µM | [37] > 100 µM | [38] > 100 µM | [39] 47.9 µM | [40] > 100 µM | [41] > 100 µM | [43] > 100 µM | [44] 51.1 µM | [45] > 100 µM | [46] > 100 µM | [47] > 100 µM | [48] > 100 µM | [49] > 100 µM | [50] > 100 µM | [51] > 100 µM | [52] > 100 µM | [53] > 100 µM

CC(C)=CCC/C(C)=C\CC/C(C)=C/CO
inactive: [1] > 10 µM | [3] 26.2 µM | [4] 36.1 µM | [5] 17.4 µM | [6] 44.9 µM | [7] 21 µM | [8] > 100 µM | [9] 17.6 µM | [10] 17.1 µM | [11] 23.8 µM | [12] 19.6 µM | [54] 21.4 µM | [13] 18.5 µM | [14] 25.7 µM | [15] 19.5 µM | [16] 36.4 µM | [17] > 10 µM | [18] 16.5 µM | [19] > 10 µM | [55] 16.8 µM | [20] 41.4 µM | [21] 10.5 µM | [22] 37.2 µM | [23] 19.8 µM | [56] 22.6 µM | [24] 19.3 µM | [25] 85.9 µM | [26] 20.5 µM | [28] 42 µM | [57] 14.7 µM | [29] 31.9 µM | [30] 24.4 µM | [31] 28.8 µM | [32] 30.6 µM | [33] 38.2 µM | [34] > 100 µM | [35] 13.7 µM | [36] 40.1 µM | [38] 19.7 µM | [39] 31 µM | [40] 21.6 µM | [41] 19.6 µM | [43] 23.1 µM | [44] 26.4 µM | [45] 65.6 µM | [46] 22.5 µM | [47] 22.4 µM | [48] 16.4 µM | [49] 27.1 µM | [50] 14.2 µM | [51] 18.2 µM | [52] 41.1 µM | [58] 19.7 µM
40.1 µM: [42]
